# Read-outs that look alike come from different tables or passages of the source.
# Molecular target: SREBP-2 (Homo sapiens (Human), UniProt Q12772)
# Experiment: In vitro assay SREBP-2: PathHunter U2OS SREBP-2 Nuclear Translocation Cell Line, U18666A-stimulated
# Format: cell-based
# [1] = PathHunter U2OS SREBP-2 nuclear translocation cells, U18666A 10 μM, overnight (16 hours)
SMILES,IC50 [1],IC50
"C[C@H](CCC(=O)N1CC[C@H](CO)O1)[C@H]1CC[C@H]2[C@@H]3CC=C4C[C@@H](O)CC[C@]4(C)[C@H]3CC[C@]12C [Example 43, (R)-4-((3S,8S,9S,10R,13R,14S,17R)-3-hydroxy-10,13-dimethyl-2,3,4,7,8,9,10,11,12,13,14,15,16,17-tetradecahydro-1H-cyclopenta[a]phenanthren-17-yl)-1-((R)-5-(hydroxymethyl)isoxazolidin-2-yl)pentan-1-one]",250 to 1000 nM,–
"C[C@H](CCC(=O)N1CCNCC1)[C@H]1CC[C@H]2[C@@H]3CC=C4C[C@@H](O)CC[C@]4(C)[C@H]3CC[C@]12C [Example 2, (R)-4-((3S,8S,9S,10R,13R,14S,17R)-3-hydroxy-10,13-dimethyl-2,3,4,7,8,9,10,11,12,13,14,15,16,17-tetradecahydro-1H-cyclopenta[a]phenanthren-17-yl)-1-(piperazin-1-yl) pentan-1-one]",250 to 1000 nM,–
"C[C@H](CCC(=O)N1CCC[C@@H](Oc2cnn(C)c2)C1)[C@H]1CC[C@H]2[C@@H]3CC=C4C[C@@H](O)CC[C@]4(C)[C@H]3CC[C@]12C [Example 518, (4R)-4-[(1R,3aS,3bS,7S,9aR,9bS,11aR)-7-hydroxy-9a,11a-dimethyl-1H,2H,3H,3aH,3bH,4H,6H,7H,8H,9H,9aH,9bH,10H,11H,11aH-cyclopenta[a]phenanthren-1-yl]-1-[(3R)-3-[(1-methyl-1H-pyrazol-4-yl)oxy]piperidin-1-yl]pentan-1-one]",< 250 nM,–
"C[C@H](CC[C@](O)(C1CCC1)C(F)(F)F)[C@H]1CC[C@H]2[C@@H]3CC=C4C[C@@H](O)CC[C@]4(C)[C@H]3CC[C@]12C [Example 25, (3S,8S,9S,10R,13R,14S,17R)-17-((2R,5S)-5-cyclobutyl-6,6,6-trifluoro-5-hydroxyhexan-2-yl)-10,13-dimethyl-2,3,4,7,8,9,10,11,12,13,14,15,16,17-tetradecahydro-1H-cyclopenta[a]phenanthren-3-ol]",250 to 1000 nM,–
"Cc1ccncc1O[C@@H](C)[C@H]1CC[C@H]2[C@@H]3CC=C4C[C@@H](O)CC[C@]4(C)[C@H]3CC[C@]12C [Example 271, (3S,8S,9S,10R,13S,14S,17S)-10,13-dimethyl-17-((S)-1-((4-methylpyridin-3-yl)oxy)ethyl)-2,3,4,7,8,9,10,11,12,13,14,15,16,17-tetradecahydro-1H-cyclopenta[a]phenanthren-3-ol]",250 to 1000 nM,–
"Cc1ccc(OC[C@@H](C)[C@H]2CC[C@H]3[C@@H]4CC=C5C[C@@H](O)CC[C@]5(C)[C@H]4CC[C@]23C)nc1 [Example 263, (3S,8S,9S,10R,13S,14S,17R)-10,13-dimethyl-17-((S)-1-((5-methylpyridin-2-yl)oxy)propan-2-yl)-2,3,4,7,8,9,10,11,12,13,14,15,16,17-tetradecahydro-1H-cyclopenta[a]phenanthren-3-ol]",250 to 1000 nM,–
"Cc1noc(C2CCN(C(=O)CC[C@@H](C)[C@H]3CC[C@H]4[C@@H]5CC=C6C[C@@H](O)CC[C@]6(C)[C@H]5CC[C@]34C)CC2)n1 [Example 505, (R)-4-((3S,8S,9S,10R,13R,14S,17R)-3-hydroxy-10,13-dimethyl-2,3,4,7,8,9,10,11,12,13,14,15,16,17-tetradecahydro-1H-cyclopenta[a]phenanthren-17-yl)-1-(4-(3-methyl-1,2,4-oxadiazol-5-yl)piperidin-1-yl)pentan-1-one]",< 250 nM,–
"C[C@H](CCC(=O)NCC(=O)O)[C@H]1CC[C@H]2[C@@H]3CC=C4C[C@@H](O)CC[C@]4(C)[C@H]3CC[C@]12C [Example 107, ((R)-4-((3S,8S,9S,10R,13R,14S,17R)-3-hydroxy-10,13-dimethyl-2,3,4,7,8,9,10,11,12,13,14,15,16,17-tetradecahydro-1H-cyclopenta[a]phenanthren-17-yl)pentanoyl)glycine]",> 10000 nM,–
"C#CC1(OC)CCN(C(=O)CC[C@@H](C)[C@H]2CC[C@H]3[C@@H]4CC=C5C[C@@H](O)CC[C@]5(C)[C@H]4CC[C@]23C)CC1 [Example 330, (R)-1-(4-ethynyl-4-methoxypiperidin-1-yl)-4-((3S,8S,9S,10R,13R,14S,17R)-3-hydroxy-10,13-dimethyl-2,3,4,7,8,9,10,11,12,13,14,15,16,17-tetradecahydro-1H-cyclopenta[a]phenanthren-17-yl)pentan-1-one]",< 250 nM,–
"C[C@H](CCC(=O)N1CCC[C@@H](Oc2ccncc2)C1)[C@H]1CC[C@H]2[C@@H]3CC=C4C[C@@H](O)CC[C@]4(C)[C@H]3CC[C@]12C [Example 521, (R)-4-((3S,8S,9S,10R,13R,14S,17R)-3-hydroxy-10,13-dimethyl-2,3,4,7,8,9,10,11,12,13,14,15,16,17-tetradecahydro-1H-cyclopenta[a]phenanthren-17-yl)-1-((R)-3-(pyridin-4-yloxy)piperidin-1-yl)pentan-1-one]",< 250 nM,–
"CNC(=O)c1cncc(O[C@@H](C)[C@H]2CC[C@H]3[C@@H]4CC=C5C[C@@H](O)CC[C@]5(C)[C@H]4CC[C@]23C)c1 [Example 266, 5-((S)-1-((3S,8S,9S,10R,13S,14S,17S)-3-hydroxy-10,13-dimethyl-2,3,4,7,8,9,10,11,12,13,14,15,16,17-tetradecahydro-1H-cyclopenta[a]phenanthren-17-yl)ethoxy)-N-methylnicotinamide]",250 to 1000 nM,–
"C[C@H](CCC(=O)N1CCC(O)(c2ccnnc2)CC1)[C@H]1CC[C@H]2[C@@H]3CC=C4C[C@@H](O)CC[C@]4(C)[C@H]3CC[C@]12C [Example 343, (R)-4-((3S,8S,9S,10R,13R,14S,17R)-3-hydroxy-10,13-dimethyl-2,3,4,7,8,9,10,11,12,13,14,15,16,17-tetradecahydro-1H-cyclopenta[a]phenanthren-17-yl)-1-(4-hydroxy-4-(pyridazin-4-yl)piperidin-1-yl) pentan-1-one]",1000 to 10000 nM,–
"CC(=O)N1CCC(C(=O)N(C)CC[C@@H](C)[C@H]2CC[C@H]3[C@@H]4CC=C5C[C@@H](O)CC[C@]5(C)[C@H]4CC[C@]23C)CC1 [Example 294, 1-acetyl-N—((R)-3-((3S,8S,9S,10R,13R,14S,17R)-3-hydroxy-10,13-dimethyl-2,3,4,7,8,9,10,11,12,13,14,15,16,17-tetradecahydro-1H-cyclopenta[a]phenanthren-17-yl)butyl)-N-methylpiperidine-4-carboxamide]",250 to 1000 nM,–
"C[C@H](CCC(=O)N(C)CCc1ccncc1)[C@H]1CC[C@H]2[C@@H]3CC=C4C[C@@H](O)CC[C@]4(C)[C@H]3CC[C@]12C [Example 544, (R)-4-((3S,8S,9S,10R,13R,14S,17R)-3-hydroxy-10,13-dimethyl-2,3,4,7,8,9,10,11,12,13,14,15,16,17-tetradecahydro-1H-cyclopenta[a]phenanthren-17-yl)-N-methyl-N-(2-(pyridin-4-yl)ethyl)pentanamide]",< 250 nM,–
"C[C@H](OC(=O)C(=O)N(C)C)[C@H]1CC[C@H]2[C@@H]3CC=C4C[C@@H](O)CC[C@]4(C)[C@H]3CC[C@]12C [Example 35, (S)-1-((3S,8S,9S,10R,13S,14S,17S)-3-hydroxy-10,13-dimethyl-2,3,4,7,8,9,10,11,12,13,14,15,16,17-tetradecahydro-1H-cyclopenta[a]phenanthren-17-yl)ethyl 2-(dimethylamino)-2-oxoacetate]",250 to 1000 nM,–
"C[C@H](OC(=O)N(C)C)[C@H]1CC[C@H]2[C@@H]3CC=C4C[C@@H](O)CC[C@]4(C)[C@H]3CC[C@]12C [Example 461, (1S)-1-[(1S,3aS,3bS,7S,9aR,9bS,11aS)-7-hydroxy-9a,11a-dimethyl-1H,2H,3H,3aH,3bH,4H,6H,7H,8H,9H,9aH,9bH,10H,11H,11aH-cyclopenta[a]phenanthren-1-yl]ethyl N,N-dimethylcarbamate]",250 to 1000 nM,–
"CNC(=O)N[C@H]1CCN(C(=O)CC[C@@H](C)[C@H]2CC[C@H]3[C@@H]4CC=C5C[C@@H](O)CC[C@]5(C)[C@H]4CC[C@]23C)C1 [Example 533, 1-((S)-1-((R)-4-((3S,8S,9S,10R,13R,14S,17R)-3-hydroxy-10,13-dimethyl-2,3,4,7,8,9,10,11,12,13,14,15,16,17-tetradecahydro-1H-cyclopenta[a]phenanthren-17-yl)pentanoyl)pyrrolidin-3-yl)-3-methylurea]",< 250 nM,–
"C[C@H](CCC(=O)N1CCN(C(=O)OC2COC2)CC1)[C@H]1CC[C@H]2[C@@H]3CC=C4C[C@@H](O)CC[C@]4(C)[C@H]3CC[C@]12C [Example 425, oxetan-3-yl4-((R)-4-((3S,8S,9S,10R,13R,14S,17R)-3-hydroxy-10,13-dimethyl-2,3,4,7,8,9,10,11,12,13,14,15,16,17-tetradecahydro-1H-cyclopenta[a]phenanthren-17-yl)pentanoyl)piperazine-1-carboxylate]",–,< 250 nM
"CC(=O)N(C)C1CN(C(=O)CC[C@@H](C)[C@H]2CC[C@H]3[C@@H]4CC=C5C[C@@H](O)CC[C@]5(C)[C@H]4CC[C@]23C)C1 [Example 325, N-(1-((R)-4-((3S,8S,9S,10R,13R,14S,17R)-3-hydroxy-10,13-dimethyl-2,3,4,7,8,9,10,11,12,13,14,15,16,17-tetradecahydro-1H-cyclopenta[a]phenanthren-17-yl)pentanoyl)azetidin-3-yl)-N-methylacetamide]",250 to 1000 nM,–
"C[C@H](CCC(=O)N(C)CC(=O)O)[C@H]1CC[C@H]2[C@@H]3CC=C4C[C@@H](O)CC[C@]4(C)[C@H]3CC[C@]12C [Example 108, N—((R)-4-((3S,8S,9S,10R,13R,14S,17R)-3-hydroxy-10,13-dimethyl-2,3,4,7,8,9,10,11,12,13,14,15,16,17-tetradecahydro-1H-cyclopenta[a]phenanthren-17-yl)pentanoyl)-N-methylglycine]",> 10000 nM,–
"CC#CC1(O)CCN(C(=O)CC[C@@H](C)[C@H]2CC[C@H]3[C@@H]4CC=C5C[C@@H](O)CC[C@]5(C)[C@H]4CC[C@]23C)CC1 [Example 90, (R)-4-((3S,8S,9S,10R,13R,14S,17R)-3-hydroxy-10,13-dimethyl-2,3,4,7,8,9,10,11,12,13,14,15,16,17-tetradecahydro-1H-cyclopenta[a]phenanthren-17-yl)-1-(4-hydroxy-4-(prop-1-yn-1-yl)piperidin-1-yl)pentan-1-one]",< 250 nM,–

# From patent US20230340011A1 (Asteroid Therapeutics, priority 2022, published 2023)
